Earlier results, collected in patent EP2743282B1, “Melamine-aldehyde-condensation product and method obtaining the same” (Borealis Agrolinz Melamine GmbH, priority 2012, dated 2014).
Values after ≈ are worked out from the molar mass of the structure shown.

Settings: in water at 20 °C

| Structure (SMILES) | water solubility |
| --- | --- |
| CN(C)c1nc(N)nc(N)n1 [N,N-dimethylmelamine] | 1.2 g/L (≈ 7.78 mM) |
| CNc1nc(NC)nc(N(C)C)n1 [N,N,N',N"-tetramethylmelamine, reference compound] | 49 g/L (≈ 269 mM) |
| CN(C)c1nc(N)nc(N(C)C)n1 [N,N,N',N'-tetramethylmelamine] | 0.4 g/L (≈ 2.2 mM) |
